Assay results published in patent publication US20240207302A1, “ANTIVIRAL COMPOUNDS, METHODS FOR THE MANUFACTURING OF COMPOUNDS, ANTIVIRAL PHARMACEUTICAL COMPOSITION, USE OF THE COMPOUNDS AND METHOD FOR THE ORAL TREATMENT OF CORONAVIRUS INFECTION AND RELATED DISEASES THEREOF” (priority 2021, published 2024).
pEC50: −log10 of the molar value. Where two headings read alike, the source gives them in different places.

Key:
[1] = Pharmacokinetics of MB-905 in three pre-formulations in mice; type: in vivo; conditions: mouse, plasma, po, 550 mg/kg, 5% ethanol, 30% Propylene Glycol, 45% PEG 400, 20% water, 550 mg/kg (p.o.)
Source text: FIG. 21. Pharmacokinetics of MB-905 in three pre-formulations in mice.
Thus, the pre-formulation was used for most subsequent in vivo studies.

[2] = system: murine hepatitis virus (MHV); type: in vivo, mice; conditions: DAC 60 mg/kg/day
[3] = system: mouse bone marrow polychromatic erythrocytes; experiment: Micronucleus test in mouse bone marrow; type: in vivo; conditions: mice
Experimental: The ratio of polychromatic to normochromatic erythrocytes and the count of micronuclei were determined. This assay was conducted in compliance with the GLP principles.

[4] = Toxicokinetics in the 28-day study; type: in vivo, mice; conditions: for AUC / Cmax / Tmax / half-life: CD1, mouse, in vivo, po
[5] = Cardiovascular safety pharmacology by telemetry; conditions: rats; 50 or 250 mg/Kg oral, single or repeated (7 days)
Experimental: Data are presented as mean±S.E.M. Statistical analysis was performed by two-way ANOVA followed by Bonferroni post hoc test. n=4-6 animals per group.

[6] = female, 10 mg/kg, female mice, 10 mg/kg, Day 0
[7] = female, 10 mg/kg, female mice, 10 mg/kg, Day 28
[8] = female, 80 mg/kg, female mice, 80 mg/kg, Day 0
[9] = female, 80 mg/kg, female mice, 80 mg/kg, Day 28
[10] = female, 250 mg/kg, female mice, 250 mg/kg, Day 0
[11] = female, 250 mg/kg, female mice, 250 mg/kg, Day 28
[12] = male, 10 mg/kg, male mice, 10 mg/kg, Day 0
[13] = male, 10 mg/kg, male mice, 10 mg/kg, Day 28
[14] = male, 80 mg/kg, male mice, 80 mg/kg, Day 0
[15] = male, 80 mg/kg, male mice, 80 mg/kg, Day 28
[16] = male, 250 mg/kg, male mice, 250 mg/kg, Day 0
[17] = male, 250 mg/kg, male mice, 250 mg/kg, Day 28
[18] = Severe acute respiratory syndrome coronavirus 2, Calu-3, 72 h, Calu-3 (MOI 0.5 72 h), daily treatment
[19] = Severe acute respiratory syndrome coronavirus 2, Calu-3, 72 h, Calu-3 (MOI 0.5 72 h), single moment treatment
[20] = Severe acute respiratory syndrome coronavirus 2, Calu-3, Table 6, Calu-3, daily treatment
[21] = Severe acute respiratory syndrome coronavirus 2, Calu-3, Table 6, Calu-3, single treatment

c1coc(CNc2ncnc3[nH]cnc23)c1 [MB-905, kinetin]
half-life [1]: 518 min
weight recovery ([2]; MB-905 250 mg/kg/day): did not allow complete weight recovery
inflammatory cells in the respiratory tract ([2]; day 11, MB-905 250 mg/kg/day): less inflammatory cells
mortality ([2]; oral gavage daily from day 2, MB-905 250 mg/kg/day): reduced the mice mortality by half
MNPCE/4,000 PCE (Mean ± S.D.) ([3]; 32 mg/Kg p.o.): 8.50 ± 4.50
MNPCE/4,000 PCE (Mean ± S.D.) ([3]; 125 mg/Kg p.o.): 8.50 ± 3.81
MNPCE/4,000 PCE (Mean ± S.D.) ([3]; 500 mg/Kg p.o.): 9.00 ± 2.45
AUC [4, 6]: 422 ng·h/mL
Cmax [4, 6]: 288 ng/mL
Tmax [4, 6]: 15 min
AUC [4, 7]: 56.6 ng·h/mL
Cmax [4, 7]: 95 ng/mL
Tmax [4, 7]: 15 min
AUC [4, 8]: 5010 ng·h/mL
Cmax [4, 8]: 747 ng/mL
Tmax [4, 8]: 15 min
half-life [4, 8]: 1550 min
AUC [4, 9]: 1590 ng·h/mL
Cmax [4, 9]: 464 ng/mL
Tmax [4, 9]: 15 min
half-life [4, 9]: 65.4 min
AUC [4, 10]: 4910 ng·h/mL
Cmax [4, 10]: 898 ng/mL
Tmax [4, 10]: 15 min
half-life [4, 10]: 185 min
AUC [4, 11]: 2080 ng·h/mL
Cmax [4, 11]: 716 ng/mL
Tmax [4, 11]: 15 min
half-life [4, 11]: 155 min
AUC [4, 12]: 91 ng·h/mL
Cmax [4, 12]: 99 ng/mL
Tmax [4, 12]: 15 min
AUC [4, 13]: 121 ng·h/mL
Cmax [4, 13]: 144 ng/mL
Tmax [4, 13]: 15 min
AUC [4, 14]: 1020 ng·h/mL
Cmax [4, 14]: 598 ng/mL
Tmax [4, 14]: 15 min
half-life [4, 14]: 72.6 min
AUC [4, 15]: 1170 ng·h/mL
Cmax [4, 15]: 750 ng/mL
Tmax [4, 15]: 15 min
AUC [4, 16]: 4480 ng·h/mL
Cmax [4, 16]: 793 ng/mL
Tmax [4, 16]: 60 min
AUC [4, 17]: 1130 ng·h/mL
Cmax [4, 17]: 588 ng/mL
Tmax [4, 17]: 15 min
half-life [4, 17]: 91.8 min
accumulation (AUCall and Cmax day 0 vs day 28) ([4]; mice, males and females): no there was an accumulation
cardiovascular hemodynamic parameters (systolic, diastolic, mean blood pressure, heart rate) [5]: did not induces any changes
pEC50 (SARS-COV-2; [18]): 7.52
EC90 (SARS-COV-2; [18]): 2100 nM
pEC50 (SARS-COV-2; [19]): 6.51
EC90 (SARS-COV-2; [19]): 2800 nM
pEC50 (SARS-COV-2; [20]): 7.52
EC90 (SARS-COV-2; [20]): 2100 nM
pEC50 (SARS-COV-2; [21]): 6.51
EC90 (SARS-COV-2; [21]): 2800 nM
anti-coronavirus activity with simultaneous adenine (SARS-COV-2; calu-3, adenine at 10 μM): prevented
anti-coronavirus activity (SARS-COV-2 replication) (SARS-COV-2; calu-3, treatment just after inoculation): concentration dependent inhibition
